# Test system: RHE-MEL 3D in vitro Caucasian skin model
# Assay: Skin pigmentation (ITA°) on melanized reconstructed human epidermis 3D model RHE-MEL
# Format: cell-based
# Conditions: 14 days study, treated daily for 10 days; Skin Care Composition at 1%, niacinamide at same use level; versus untreated
# Description: The protocol for this study including the following. A melanized reconstructed human epidermis 3D Model (RHE-MEL) (in vitro Caucasian skin model) was used. The study duration was for 14 days. The RHE-MEL 3D in vitro skin tissues were allowed to grow in the first 4 days. The 3D skin tissues were treated every day with the materials for 10 days. The following samples were used: Untreated sample, Benchmark Niacinamide (at same use level as in Skin Care Composition), and Skin Care Composition used at 1%. Concentrations of materials were predetermined based on screening MTT assay. A C-Cube Dermoscope® (a high quality magnifying lens and a powerful lighting system used to evaluate pigmented skin lesions, and can diagnose melanoma), was used coupled with C-Cube clinical software for image analysis. Skin pigmentation was analyzed via high resolution pictures obtained from the C-Cube Dermoscope® coupled with an image analysis software. ITA° parameter was measured as degree of pigmentation of the skin directly on in vitro 3D RHE-MEL skin model. Statistical analysis was done using the Student T-test with a confidence level of (p<0.05).
# In this 3D RHE-MEL in vitro Caucasian model skin measured was the intensity of the skin pigmentation degree by ITA° parameter (individual typological angle). […]
structure (smiles),measurement,value
NC(=O)c1cccnc1 [Niacinamide],"ITA° (individual typology angle), degree of skin pigmentation",increased the ITA°

# Reference: US20220249347A1, “Composition and Method Containing Pea and Quinoa Natural Peptides And Niacinamide to Enhance Skin Glow, Radiance And Even Skin Tone” (TRI-K Industries, Inc., priority 2021, published 2022)
